Results published in patent US20150313862A1, “"Pharmaceutical composition for reducing the trimethylamine N-oxide level"” (Latvian Institute of Organic Synthesis, priority 2012, published 2015).
Marks after values point to notes of the source that are not given here.

Experiments:
TMANO [1] = test: Total amount of TMANO excreted with urine during 7 days, healthy volunteers on a TMANO source rich diet (UPLC-MS/MS, creatinine by Jaffe method); format: in vivo, human; conditions: for Total excreted with urine TMANO amount during 7 days: healthy volunteers (n=8), 7 days TMANO source rich diet with oral Meldonium 1 g/day, area under the curve, mean ± SEM, diet alone 18.2 ± 2.2, baseline 2.8 ± 0.6, dihydrate
Method: (§1) Eight healthy volunteers were involved in the study, 4 women and 4 men. The study was conducted in accordance with the Declaration of Helsinki, and with bioethical norms approved by the Central Committee of Medical Ethics. All study participants have signed informed consent forms. Exclusion criteria for participation in the study were: the use of dietary supplements, smoking, pregnancy and alcohol addiction. At the study beginning information about the participant's age, medication use, height and weight was recorded.
Then, a venous blood sample and evening and morning urine samples were collected from the study participants. At the first stage of experiment, all participants received 150 grams of fish for lunch, once a day, during 7 days, which served as a source of TMANO increased formation in the body (W. J. Dyer. Amines in Fish Muscle. VI. Trimethylamine Oxide Content of Fish and Marine Invertebrates, Journal of the Fisheries Research Board of Canada, 8c(5): 314-324, 10.1139/f50-020, 1952). […]
(§2) TMANO concentration in plasma and urine samples was determined by ultrahigh performance liquid chromatography-tandem mass spectrometry method. […] TMANO detection and quantification was performed using Quattro Micro™ spectrometer (Micromass) in an ion reaction monitoring (TMANO ion transition m/z75.8>m/z58.3, IS ion transition m/z175.4>m/z86.0) positive electrospraying mode (cone voltage 26V, collision energy 14 eV, collision gas—argon). […]
TMANO concentration in the sample was calculated using the linear relationship TMANO peak area/IS peak area—TMANO concentration using the data processing software QuanLynx V4.1 (Waters).
Creatinine concentration was calculated by slightly modified Jaffe method (Jaffe M. Ueber die Niederschlag, welchen Pikrinsaure in normalem Ham erzeugt and uber eine neue Reaction des Kreatinins. Z physiol Chem 1886; 10: 391-400). […] After 10 min of incubation at room temperature the absorbance was measured at 492 nm with a μQuant™ multiwell plate […] spectrophotometer (Biotek Instruments, USA). […]

[2] = cited from earlier work
TMANO [3] = test: TMANO concentration in blood plasma of healthy volunteers on a TMANO source rich diet (UPLC-MS/MS); format: in vivo, human; conditions: for TMANO concentration in study participant's blood plasma: healthy volunteers (n=8), after 7 days TMANO source rich diet (150 g fish/day) with oral Meldonium 500 mg twice a day, mean ± SEM, diet alone 81.5 ± 8.6, baseline 4.9 ± 1.3, dihydrate
Method: as §1
Then, a venous blood sample and evening and morning urine samples were collected from the study participants. At the first stage of experiment, all participants received 150 grams of fish for lunch, once a day, during 7 days, which served as a source of TMANO increased formation in the body (W. J. Dyer. Amines in Fish Muscle. VI. Trimethylamine Oxide Content of Fish and Marine Invertebrates, Journal of the Fisheries Research Board of Canada, 8c(5): 314-324, 10.1139/f50-020, 1952).
During the next stage of experiment, to determine the effect of Meldonium on TMANO concentration in blood plasma and urine, in addition to trimethylamine-rich food source, a pharmaceutical composition containing 500 mg of Meldonium was administered to each study participant during 7 days, twice a day (morning and evening). […]
as §2
TMANO concentration in the sample was calculated using the linear relationship TMANO peak area/IS peak area—TMANO concentration using the data processing software QuanLynx V4.1 (Waters). […]

## C[N+](C)(C)NCCC(=O)[O-] [Meldonium, 3-(2,2,2-trimethyhydrazinium)propionate dihydrate]
TMANO [1]; 7 days oral Meldonium 500 mg twice a day with TMANO-rich food, versus before Meldonium use, statistically significant
  Increase of urine excreted TMANO amount: about 25%
TMANO [1]
  Total excreted with urine TMANO amount during 7 days: 24.3±1.5 μmol/mg creatinine *7 d
TMANO [1]; listed as TMANO + Meldonium
  Total excreted with urine TMANO amount during 7 days: 24.3 ± 1.5*^,# μmol/mg creatinine *7 d
[2]
  Solubility in water: easily soluble in water
TMANO [3]; 7 days oral Meldonium 500 mg twice a day with TMANO-rich food, compared with TMANO level before Meldonium use, statistically significant
  Reduction of TMANO plasma concentration: 47%
TMANO [3]
  TMANO concentration in study participant's blood plasma: 43.0 ± 3.8 nmol/mL
TMANO [3]; listed as TMANO + Meldonium
  TMANO concentration in study participant's blood plasma: 43.0 ± 3.8*^,# nmol/ml
